Test results taken from article PMC3429506, “Screening for Novel LRRK2 Inhibitors Using a High-Throughput TR-FRET Cellular Assay for LRRK2 Ser935 Phosphorylation” (PLoS ONE, 2012).

Key:
LRRK2 wild-type = LRRK2 wild-type (Homo sapiens, UniProt Q5S007); assay: TR-FRET cellular assay for LRRK2 Ser935 phosphorylation, HEK293T cells, BacMam LRRK2-GFP wild-type; set-up: This high-throughput assay utilizes cells expressing full-length human LRRK2 with a C-terminal GFP tag (LRRK2-GFP); host or cells: HEK293T cells transduced with BacMam; conditions: WT, +/- SD, three independent experiments, * = partial inhibition, read-out: IC50, TR-FRET cell-based assay for Ser935 phosphorylation of LRRK2
Description: (§1) U-2 OS cells are maintained in growth medium (McCoy’s 5A supplemented with 10% dialyzed FBS (dFBS), 10 mM HEPES, 0.1 mM NEAA, 1 mM Sodium Pyruvate, and 100 U/mL Penicillin/100 µg/mL Streptomycin). HEK293T cells are maintained in DMEM with 10% dFBS, 10 mM HEPES, 0.1 mM NEAA and 100 U/mL Penicillin/100 µg/mL Streptomycin. SH-SY5Y cells are maintained in DMEM/F-12 medium supplemented with 10% dFBS and 100 U/mL Penicillin/100 µg/mL Streptomycin. […] GIBCO® human neural stem cells (hNSCs) were propagated as an adherent culture in StemPro® NSC SFM according to the manufacturer’s recommended protocol (Life Technologies). For BacMam transduction of U-2 OS and HEK293T, cells were harvested, mixed with various amounts of BacMam LRRK2-GFP reagent (v/v) and plated onto 6-well plates. […] Cells were assayed in 384-well format (∼20,000 cells/well) 48 hours post-transduction as above.
(§2) Transduced cells in the 384-well assay plate were incubated with indicated inhibitors (5X, 5 µL/well) for 60 to 90 minutes. During this time, 6 X lysis buffer (Life Technologies) was supplemented with 30 nM Tb-labeled anti-LRRK2 pSer935 antibody and both protease and phosphatase inhibitor cocktails (Sigma). The complete 6 X lysis buffer was added to each well (5 µL/well) and the plates were incubated at room temperature in the dark for 2 hours. […] A sigmoidal dose-response equation with varying slope was used to fit the data and generate IC50 values. Z′-factor values were calculated as: Z′-factor = 1 - [(3 × stdevno virus +3 × stdevmaxvirus)/(avgmaxvirus – avgno-virus)]. The IC50 values reported in Table 1 are the averaged numbers from three independent experiments.

LRRK2 G2019S [1] = target: T1, LRRK2 G2019S (Homo sapiens, UniProt Q5S007, G2019S); assay: In vitro biochemical LRRK2 TR-FRET activity assay; conditions: LRRK2 G2019S, ATP 134 µM (Km,app), LRRKtide substrate, three independent experiments; read-out: Biochemical LRRK2 assay IC50 +/- SD
GFP-LRRK2 G2019S = target: T2, GFP-LRRK2 G2019S (Homo sapiens, UniProt Q5S007, G2019S); assay: Immunoprecipitation/Western analysis of LRRK2 phosphorylation at Ser910, Ser935, Ser955, Ser973 in HEK293 T-REx GFP-LRRK2 G2019S cells; assay type: cell-based; conditions: 20 µM, 90 min, HEK293 GFP-LRRK2 G2019S, Figure 6
T2 construct: expressed in transfected cells
Description: Immunoblot analysis: BacMam LRRK2-GFP transduced U-2 OS or SH-SY5Y cells (10^7 cells) were left untreated or treated with 3 µM LRRK2-IN-I for 90 min. For lysate preparation, the cells were washed once with ice-cold PBS and lysed by addition of ice-cold lysis buffer (20 mM Tris-HCl, pH 7.4, 1% NP-40, 5 mM EDTA, 5 mM NaF, 150 mM NaCl, and 1∶100 of protease and phosphatase inhibitor cocktails). The lysate was cleared of debris by centrifugation. Equal amount of total protein was loaded onto each lane for SDS-PAGE (3–8% Tris Acetate). The proteins were transferred onto nitrocellulose membrane using the iBLOT® dry blotting system (Life Technologies) according to manufacturer’s protocol. The membranes were blocked and incubated with a primary antibody against LRRK2 (Cell Signaling Technologies), followed by incubation with alkaline phosphatase-conjugated secondary antibody (WesternBreeze® chromogenic Kit, Life Technologies). The blot was developed by using the chromogenic BCIP/NBT substrate (WesternBreeze® chromogenic Kit, Life Technologies). […] Two days post induction, cells were treated for 90 minutes in the presence of 20 µM of compound or DMSO vehicle control. Cells were rapidly lysed in ice cold lysis buffer 50 mM Tris/HCl, pH 7.5, 1 mM EGTA, 1 mM EDTA, […] 1 mM sodium orthovanadate, 10 mM sodium beta-glycerolphosphate, 50 mM NaF, 5 mM sodium pyrophosphate, 0.27 M sucrose, 1 mM benzamidine and 2 mM phenylmethanesulphonylfluoride (PMSF) and one tablet each complete protease inhibitor and PhosSTOP phosphatase inhibitor (Roche) and was supplemented with 1% (v/v) Triton X-100. GFP-LRRK2 was immunoprecipitated with GFP nanotrap beads (ChromoTek). Immunecomplexes were washed twice with lysis buffer supplemented with 300 mM NaCl and once with Buffer A (50 mM Tris/HCl, pH 7.5, 50 mM NaCl, 0.1 mM EGTA and 0.1% (v/v) 2-mercaptoethanol, and 0.27 M sucrose).

LRRK2 G2019S [2] = target: T1, LRRK2 G2019S; assay: TR-FRET cellular assay for LRRK2 Ser935 phosphorylation, human neural stem cells, BacMam LRRK2-GFP G2019S; assay type: cell-based; set-up: This high-throughput assay utilizes cells expressing full-length human LRRK2 with a C-terminal GFP tag (LRRK2-GFP); host or cells: U-2 OS, SH-SY5Y, HEK293T cells or human neural stem cells transduced with BacMam; conditions: 10% BacMam G2019S, 90 min, Figure 4, read-out: IC50, inhibition of G2019S Ser935 phosphorylation via TR-FRET
Description: as §1
Transduced cells in the 384-well assay plate were incubated with indicated inhibitors (5X, 5 µL/well) for 60 to 90 minutes. During this time, 6 X lysis buffer (Life Technologies) was supplemented with 30 nM Tb-labeled anti-LRRK2 pSer935 antibody and both protease and phosphatase inhibitor cocktails (Sigma). […] Z′-factor values were calculated as: Z′-factor = 1 - [(3 × stdevno virus +3 × stdevmaxvirus)/(avgmaxvirus – avgno-virus)]. […]

LRRK2 G2019S [3] = target: T1, LRRK2 G2019S; assay: TR-FRET cellular assay for LRRK2 Ser935 phosphorylation, U-2 OS cells, BacMam LRRK2-GFP G2019S; assay type: cell-based; set-up: This high-throughput assay utilizes cells expressing full-length human LRRK2 with a C-terminal GFP tag (LRRK2-GFP); host or cells: U-2 OS, SH-SY5Y, HEK293T cells or human neural stem cells transduced with BacMam
Description: as §1, §2

T1 sequence (Q5S007 whole entry G2019S): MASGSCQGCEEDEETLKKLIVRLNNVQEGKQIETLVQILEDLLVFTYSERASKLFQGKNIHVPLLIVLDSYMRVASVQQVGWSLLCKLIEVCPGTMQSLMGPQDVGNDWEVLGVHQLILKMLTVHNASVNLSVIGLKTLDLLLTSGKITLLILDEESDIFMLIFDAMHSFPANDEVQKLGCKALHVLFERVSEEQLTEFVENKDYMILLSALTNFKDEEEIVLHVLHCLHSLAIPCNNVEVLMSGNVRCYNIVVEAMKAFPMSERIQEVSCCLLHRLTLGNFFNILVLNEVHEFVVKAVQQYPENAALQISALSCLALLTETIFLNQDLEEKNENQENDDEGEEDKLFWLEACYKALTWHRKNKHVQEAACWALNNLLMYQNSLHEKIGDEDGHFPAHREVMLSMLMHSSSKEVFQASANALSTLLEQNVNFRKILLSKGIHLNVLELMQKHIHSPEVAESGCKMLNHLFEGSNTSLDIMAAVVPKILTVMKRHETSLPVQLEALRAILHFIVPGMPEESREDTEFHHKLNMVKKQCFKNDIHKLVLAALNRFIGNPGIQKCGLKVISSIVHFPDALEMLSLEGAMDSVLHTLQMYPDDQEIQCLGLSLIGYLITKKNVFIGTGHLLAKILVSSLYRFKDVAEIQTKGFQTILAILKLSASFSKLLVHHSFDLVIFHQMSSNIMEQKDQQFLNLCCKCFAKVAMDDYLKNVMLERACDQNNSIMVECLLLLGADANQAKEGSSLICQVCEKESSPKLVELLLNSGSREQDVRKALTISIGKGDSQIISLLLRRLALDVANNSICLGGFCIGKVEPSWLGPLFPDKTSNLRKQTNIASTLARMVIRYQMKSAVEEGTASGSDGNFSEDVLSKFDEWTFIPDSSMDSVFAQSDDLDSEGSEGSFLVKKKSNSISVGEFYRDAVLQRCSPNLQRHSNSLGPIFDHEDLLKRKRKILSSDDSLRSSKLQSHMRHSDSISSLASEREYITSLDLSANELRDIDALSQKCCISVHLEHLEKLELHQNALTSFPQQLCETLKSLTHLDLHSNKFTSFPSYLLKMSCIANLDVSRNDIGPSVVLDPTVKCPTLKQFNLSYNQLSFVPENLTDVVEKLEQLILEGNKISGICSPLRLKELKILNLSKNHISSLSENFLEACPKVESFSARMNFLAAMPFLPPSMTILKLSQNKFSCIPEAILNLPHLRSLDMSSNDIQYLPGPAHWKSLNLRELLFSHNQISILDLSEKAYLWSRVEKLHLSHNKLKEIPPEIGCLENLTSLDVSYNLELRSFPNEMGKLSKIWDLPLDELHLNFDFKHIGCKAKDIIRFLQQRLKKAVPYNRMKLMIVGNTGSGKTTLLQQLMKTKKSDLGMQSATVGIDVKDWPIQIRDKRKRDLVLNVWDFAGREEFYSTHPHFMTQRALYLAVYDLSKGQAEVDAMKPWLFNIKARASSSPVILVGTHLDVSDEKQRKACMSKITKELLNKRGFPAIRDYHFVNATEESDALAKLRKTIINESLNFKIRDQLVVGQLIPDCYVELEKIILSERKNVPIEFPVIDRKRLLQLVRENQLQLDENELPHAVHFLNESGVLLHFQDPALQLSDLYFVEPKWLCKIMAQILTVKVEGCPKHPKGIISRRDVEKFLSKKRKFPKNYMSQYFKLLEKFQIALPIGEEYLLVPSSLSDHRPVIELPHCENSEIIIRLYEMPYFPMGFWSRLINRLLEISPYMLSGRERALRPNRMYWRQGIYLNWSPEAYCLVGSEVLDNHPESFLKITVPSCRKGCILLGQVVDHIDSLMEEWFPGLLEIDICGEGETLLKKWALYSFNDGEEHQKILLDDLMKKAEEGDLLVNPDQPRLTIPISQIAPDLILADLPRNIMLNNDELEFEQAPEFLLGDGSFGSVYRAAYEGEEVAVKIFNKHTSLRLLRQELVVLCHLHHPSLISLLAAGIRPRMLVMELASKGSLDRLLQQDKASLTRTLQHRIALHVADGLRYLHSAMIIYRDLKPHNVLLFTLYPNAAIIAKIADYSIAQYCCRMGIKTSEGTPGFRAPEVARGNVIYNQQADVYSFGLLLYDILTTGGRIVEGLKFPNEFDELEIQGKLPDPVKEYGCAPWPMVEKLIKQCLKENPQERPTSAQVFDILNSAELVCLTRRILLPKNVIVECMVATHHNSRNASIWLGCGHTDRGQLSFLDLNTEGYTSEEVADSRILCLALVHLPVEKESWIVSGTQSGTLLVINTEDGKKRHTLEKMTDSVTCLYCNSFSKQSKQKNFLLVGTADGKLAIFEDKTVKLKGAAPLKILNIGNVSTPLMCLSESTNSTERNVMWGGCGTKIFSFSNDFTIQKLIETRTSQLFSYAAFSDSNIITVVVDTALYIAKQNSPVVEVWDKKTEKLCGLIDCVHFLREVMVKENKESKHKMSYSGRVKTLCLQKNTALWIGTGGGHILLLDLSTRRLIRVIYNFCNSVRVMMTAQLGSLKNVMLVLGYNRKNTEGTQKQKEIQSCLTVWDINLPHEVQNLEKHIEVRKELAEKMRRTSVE
LRRK2 wild-type, sequence (Q5S007 whole entry): as the sequence (Q5S007 whole entry G2019S) above, with S2019G counted along it
T2 sequence (Q5S007 whole entry G2019S): as the sequence (Q5S007 whole entry G2019S) above

COc1cc(C(=O)N2CCC(N3CCN(C)CC3)CC2)ccc1Nc1ncc2c(n1)N(C)c1ccccc1C(=O)N2C [LRRK2-IN-1]
IC50 (LRRK2 wild-type): 120 nM
IC50 (LRRK2 G2019S [1]): 10 nM
effect on phosphorylation of Ser910, Ser935, Ser955 and Ser973 (IP-Western) (GFP-LRRK2 G2019S): inhibited phosphorylation of Ser910, Ser935, Ser955 and Ser973
IC50 (LRRK2 G2019S [2]): 30 nM
IC50 (LRRK2 G2019S [3]; 20% BacMam G2019S, 90 min, Figure 2B, read-out: IC50, inhibition of TR-FRET signal (Ser935 phosphorylation)): 30 nM
IC50 (LRRK2 G2019S [3]; G2019S, +/- SD, three independent experiments, * = partial inhibition, read-out: IC50, TR-FRET cell-based assay for Ser935 phosphorylation of LRRK2): 50 nM
